test system: male Wister rats; assay: blood glucose-lowering activity in dexamethasone-treated rats; format: in vivo; details: male Wister rats given dexamethasone 0.5 mg/kg i.p. once a day for 4 days; test compound 100 mg/kg orally daily; serum glucose on day 4, 4 hours after dexamethasone, fasted 24 hours; versus control and normal groups
Description: The compounds of the present invention were tested for blood glucose-lowering activities in rats in the following manner.
That is, Dexamethasone (Decadron S injectable solution:made by Banyu Pharmaceutical Co.,Ltd.) was administered intraperitoneally to a group (test group) of 5 male Wister rats (6 weeks old) at a daily dose of 0.5 mg/kg, once a day for 4 days. Immediately after the administration of dexamethasone, a test compound (100 mg/kg) dissolved in 5% gum arabic solution was administered orally to rats daily. On day 4, the rats were decapitated 4 hours after the administration of dexamethasone. Blood was collected and centrifuged (3000 rpm, […], 15 minutes), then the glucose level in the obtained serum was measured by the use of Glucose cII Test Wako (made by Wako Pure Chemical Industries, Ltd.). The rats were maintained on a diet ad libitum and then fasted 24 hours before the collection of blood.
Animals which were given 5% gum arabic solution instead of a test compound were served as a control group and those which were maintained merely on a diet ad libitum were served as a normal group. The serum glucose levels of them were measured according to the same manner as above. The decrease rate of blood glucose level was determined by the value (mean value) of each group from the following equation. [formula]

Structure (SMILES) | Decrease rate (%) in blood glucose level [%]
CCOP(=O)(CCCC(=O)Nc1cccc(Cl)c1C(=O)Nc1ccccc1)OCC [Example 31, diethyl 3-[N-[3-chloro-2-(N-phenylcarbamoyl)phenyl]carbamoyl]propylphosphonate] | 59
CCOP(=O)(CCCC(=O)Nc1c(Cl)cc(Cl)cc1C(=O)NC)OCC [Example 8, diethyl 3-[N-[4,6-dichloro-2-(N-methylcarbamoyl)phenyl]-carbamoyl]propylphosphonate] | 39
CCOP(=O)(OCC)C(=O)Nc1cc(Cl)ccc1C(=O)NC [Example 51, Diethyl N-[5-chloro-2-(N-methylcarbamoyl)phenyl]carbamoyl phosphonate] | 17
CCOP(=O)(CCCC(=O)Nc1cc(Cl)cc(Cl)c1C(=O)NC)OCC [Example 7, diethyl 3-[N-[3,5-dichloro-2-(N-methylcarbamoyl)phenyl]carbamoyl]propylphosphonate] | 30
